Laboratory results reported in patent publication US20100173919A1, “PHARMACEUTICAL COMPOSITION USING ALISKIREN AND AVOSENTAN” (priority 2006, published 2010).

Test system: double transgenic rats over-expressing both, the gene for human renin and the gene for human angiotensinogen
Assay: Urinary albumin excretion (albuminuria) in double transgenic rat model of malignant hypertension with renal complications
Format: in vivo
Description: An animal model for spontaneously malignant hypertension with renal complications is represented by double transgenic rats over-expressing both, the gene for human renin and the gene for human angiotensinogen. This double transgenic rat strain is produced by crossbreeding two transgenic strains, one for human angiotensinogen with the endogenous promoter and one for human renin with the endogenous promoter. Neither single transgenic strain is hypertensive. […] The fact that human renin can be studied in the rat is a unique feature of this model and allows the extrapolation to clinical high renin hypertension. […] Each agent can be tested over a wide range of dosages to determine the optimal drug level for each agent in combination to elicit the maximal response. Each study group is best performed in which the effects of the combination treatment group are determined at the same time as the individual components are evaluated. Although drug effects may be observed upon short term treatment, it is preferable to observe responses in a chronic setting as shown below in which experiments were done over a three to seven week observation period. The long-term duration study is of sufficient duration to allow for the full development of compensatory responses to occur and therefore, the observed effect will most likely depict the actual responses of the test system representing sustained or persistent effects. The combination therapy can be compared to that of the respective monotherapies by determining the maximum change in 24 hour urinary protein content at a given day. All values are represented as the group mean±standard error of the mean (SEM). Statistical significance is obtained when p<0.05. The albuminuria values for each of the treatment groups can be compared statistically using a one-way ANOVA followed by the appropriate post-hoc analysis, for example by performing a Bonferoni test. Four week old double transgenic rats were treated daily by oral gavage with SPP100/aliskiren at a dose of 10 mg/kg, SPP301/avosentan at doses of 10 and 30 mg/kg and combinations of SPP100/aliskiren with SPP301/avosentan at the same doses. After three, five and seven weeks of drug treatment, 24 hour urine samples are collected using metabolic cages. The urinary albumin content is measured by ELISA using a commercial kit ([…] GmbH, Luckenwalde, Germany).

Row | Structure (SMILES) | Albuminuria: mean ± SEM (SPP100 10 mg/kg daily oral gavage, Baseline, 24 h urine, ELISA) [ug/24 h] | Albuminuria: mean ± SEM (SPP100 10 mg/kg daily oral gavage, treatment week 3) [ug/24 h] | Albuminuria: mean ± SEM (SPP100 10 mg/kg daily oral gavage, treatment week 5) [ug/24 h] | Albuminuria: mean ± SEM (SPP100 10 mg/kg daily oral gavage, treatment week 7) [ug/24 h] | mean urinary albumin excretions (SPP100/aliskiren 10 mg/kg daily oral, after seven weeks of treatment) | Albuminuria: mean ± SEM (SPP301 10 mg/kg daily oral gavage, Baseline) [ug/24 h] | Albuminuria: mean ± SEM (SPP301 10 mg/kg daily oral gavage, treatment week 3) [ug/24 h] | Albuminuria: mean ± SEM (SPP301 10 mg/kg daily oral gavage, treatment week 5) [ug/24 h] | Albuminuria: mean ± SEM (SPP301 10 mg/kg daily oral gavage, treatment week 7) [ug/24 h] | Albuminuria: mean ± SEM (SPP301 30 mg/kg daily oral gavage, Baseline) [ug/24 h] | Albuminuria: mean ± SEM (SPP301 30 mg/kg daily oral gavage, treatment week 3) [ug/24 h] | Albuminuria: mean ± SEM (SPP301 30 mg/kg daily oral gavage, treatment week 5) [ug/24 h] | Albuminuria: mean ± SEM (SPP301 30 mg/kg daily oral gavage, treatment week 7) [ug/24 h] | urinary albumin contents (SPP301/avosentan at 10 or 30 mg/kg daily dosing) [mg]
1 | COCCCOc1cc(C[C@@H](C[C@H](N)[C@@H](O)C[C@H](C(=O)NCC(C)(C)C(N)=O)C(C)C)C(C)C)ccc1OC [SPP100, aliskiren] | 469 ± 64 | 3046 ± 734 | 12356 ± 3194 | 22268 ± 5067 | up to 22.3 mg |  |  |  |  |  |  |  |  | 
2 | COc1ccccc1Oc1c(NS(=O)(=O)c2ccc(C)cn2)nc(-c2ccncc2)nc1OC [SPP301, 5-methyl-pyridine-2-sulfonic acid [6-methoxy-5-(2-methoxy-phenoxy)-2-pyridin-4-yl-pyrimidin-4-yl]-amide] |  |  |  |  |  | 422 ± 128 | 14213 ± 4658 | 38936 ± 7988 | 38980 ± 9642 | 413 ± 151 | 11824 ± 2343 | 43160 ± 10250 | 37416 ± 16057 | ≤ 39
